Values of other authors in patent publication US20250255845A1, “USE OF INTERLEUKIN (IL)-17A INHIBITOR IN PREPARATION OF MEDICAMENT FOR TREATING INFLAMMATORY DISEASE” (Xiangnan University, priority 2024, published 2025).

Test system: endothelial cells
Conditions: CN101947215A; cited from earlier work

With `COc1ccc(-c2cc(=O)c3c(OC)c(OC)c(OC)c(OC)c3o2)cc1OC` [nobiletin] as the molecule, how does the “proliferation of endothelial cells / angiogenesis” value read?
The value was “inhibit the proliferation of endothelial cells”.

Which “proliferation of endothelial cells / angiogenesis” value does the source give for `COc1ccc(-c2cc(=O)c3c(OC)c(OC)c(OC)cc3o2)cc1OC` [sinensetin] here?
The value was “inhibit the proliferation of endothelial cells”.
